From ChEMBL document CHEMBL3991601, “The target landscape of clinical kinase drugs” (Science, 2017)
Active and inactive are the calls of the source. Rule as the data show it, for most assays here: actives have a measured Kd and inactives only a lower limit.

These compounds were tested against T1, Ras-related protein Rab-27A (Homo sapiens, UniProt P51159).
T1 sequence (P51159 whole entry): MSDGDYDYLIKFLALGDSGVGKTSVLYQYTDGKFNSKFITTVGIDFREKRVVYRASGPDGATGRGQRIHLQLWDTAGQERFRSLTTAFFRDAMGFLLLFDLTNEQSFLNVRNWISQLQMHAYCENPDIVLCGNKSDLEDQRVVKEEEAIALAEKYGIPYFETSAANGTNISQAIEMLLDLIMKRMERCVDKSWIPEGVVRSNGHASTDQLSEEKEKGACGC
Also: in the data inactive means no Kd found up to 30 µM.

SMILES	Kd
Cn1cc(-c2ccc(F)c(C(F)(F)F)c2)nc1C1CCN(c2ncnc3[nH]ncc23)CC1 [LY-2584702]	> 30 µM (inactive)
COc1cc(OC)c(/C=C/S(=O)(=O)Cc2ccc(OC)c(NCC(=O)O)c2)c(OC)c1 [RIGOSERTIB]	> 30 µM (inactive)
CN1N=C(N)c2cn([C@@H]3O[C@H](COP(=O)(O)O)[C@@H](O)[C@H]3O)c3ncnc1c23 [TRICIRIBINE PHOSPHATE]	> 30 µM (inactive)

What follows are compounds tested against T2, ADP/ATP translocase 3 (Homo sapiens, UniProt P12236).
T2 sequence (P12236 whole entry): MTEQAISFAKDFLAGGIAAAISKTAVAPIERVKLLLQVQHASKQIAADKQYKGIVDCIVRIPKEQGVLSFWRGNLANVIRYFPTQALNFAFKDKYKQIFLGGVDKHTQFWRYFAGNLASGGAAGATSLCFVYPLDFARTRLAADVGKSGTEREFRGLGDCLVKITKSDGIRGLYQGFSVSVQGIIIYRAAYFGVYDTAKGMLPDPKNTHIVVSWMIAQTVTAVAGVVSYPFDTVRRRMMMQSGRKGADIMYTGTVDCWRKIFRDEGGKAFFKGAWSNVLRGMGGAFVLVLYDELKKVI

SMILES	Kd
Cn1cc(-c2ccc(F)c(C(F)(F)F)c2)nc1C1CCN(c2ncnc3[nH]ncc23)CC1 [LY-2584702]	> 30 µM (inactive)
COc1cc(OC)c(/C=C/S(=O)(=O)Cc2ccc(OC)c(NCC(=O)O)c2)c(OC)c1 [RIGOSERTIB]	> 30 µM (inactive)
CN1N=C(N)c2cn([C@@H]3O[C@H](COP(=O)(O)O)[C@@H](O)[C@H]3O)c3ncnc1c23 [TRICIRIBINE PHOSPHATE]	> 30 µM (inactive)

Each compound was assayed against T3, DNA replication licensing factor MCM4 (Homo sapiens, UniProt P33991).
T3 sequence (P33991 whole entry): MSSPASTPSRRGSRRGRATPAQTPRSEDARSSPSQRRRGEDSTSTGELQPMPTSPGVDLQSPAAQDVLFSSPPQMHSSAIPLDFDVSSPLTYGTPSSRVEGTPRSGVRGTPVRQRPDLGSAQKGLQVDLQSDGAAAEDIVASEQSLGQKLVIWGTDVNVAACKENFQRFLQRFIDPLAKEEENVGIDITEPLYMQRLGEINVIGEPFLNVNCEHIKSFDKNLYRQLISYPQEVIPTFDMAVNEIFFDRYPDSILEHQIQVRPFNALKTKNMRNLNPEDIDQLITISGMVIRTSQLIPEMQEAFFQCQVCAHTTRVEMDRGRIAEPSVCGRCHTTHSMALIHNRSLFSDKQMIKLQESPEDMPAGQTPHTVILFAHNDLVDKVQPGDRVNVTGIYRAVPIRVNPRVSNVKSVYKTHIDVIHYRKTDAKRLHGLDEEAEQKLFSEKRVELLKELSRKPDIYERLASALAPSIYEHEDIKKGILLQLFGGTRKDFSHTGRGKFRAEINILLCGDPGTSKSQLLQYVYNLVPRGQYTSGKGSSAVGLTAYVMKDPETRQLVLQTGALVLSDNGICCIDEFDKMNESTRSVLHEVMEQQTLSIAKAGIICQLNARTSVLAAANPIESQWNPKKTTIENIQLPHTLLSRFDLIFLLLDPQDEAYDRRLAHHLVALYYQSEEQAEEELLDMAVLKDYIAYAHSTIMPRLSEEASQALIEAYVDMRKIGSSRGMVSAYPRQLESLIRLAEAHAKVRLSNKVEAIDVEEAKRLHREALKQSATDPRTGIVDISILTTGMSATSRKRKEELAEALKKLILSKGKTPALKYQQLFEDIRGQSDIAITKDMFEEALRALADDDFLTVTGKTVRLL

SMILES	Kd
CN1N=C(N)c2cn([C@@H]3O[C@H](COP(=O)(O)O)[C@@H](O)[C@H]3O)c3ncnc1c23 [TRICIRIBINE PHOSPHATE]	> 30 µM (inactive)

The compounds below were run against Ras-related protein Rab-6A (Homo sapiens, UniProt P20340).
Chain of Ras-related protein Rab-6A (P20340 whole entry): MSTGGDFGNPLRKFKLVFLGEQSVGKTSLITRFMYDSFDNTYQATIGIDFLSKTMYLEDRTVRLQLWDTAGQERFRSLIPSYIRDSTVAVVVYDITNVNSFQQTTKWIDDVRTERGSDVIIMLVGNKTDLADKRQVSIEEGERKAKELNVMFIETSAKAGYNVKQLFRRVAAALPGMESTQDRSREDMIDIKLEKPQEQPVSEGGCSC

SMILES	Kd
Cn1cc(-c2ccc(F)c(C(F)(F)F)c2)nc1C1CCN(c2ncnc3[nH]ncc23)CC1 [LY-2584702]	> 30 µM (inactive)
COc1cc(OC)c(/C=C/S(=O)(=O)Cc2ccc(OC)c(NCC(=O)O)c2)c(OC)c1 [RIGOSERTIB]	> 30 µM (inactive)

These compounds were tested against Proto-oncogene tyrosine-protein kinase Src (Homo sapiens, UniProt P12931).
Chain of Proto-oncogene tyrosine-protein kinase Src (P12931 2-536 limits assumed): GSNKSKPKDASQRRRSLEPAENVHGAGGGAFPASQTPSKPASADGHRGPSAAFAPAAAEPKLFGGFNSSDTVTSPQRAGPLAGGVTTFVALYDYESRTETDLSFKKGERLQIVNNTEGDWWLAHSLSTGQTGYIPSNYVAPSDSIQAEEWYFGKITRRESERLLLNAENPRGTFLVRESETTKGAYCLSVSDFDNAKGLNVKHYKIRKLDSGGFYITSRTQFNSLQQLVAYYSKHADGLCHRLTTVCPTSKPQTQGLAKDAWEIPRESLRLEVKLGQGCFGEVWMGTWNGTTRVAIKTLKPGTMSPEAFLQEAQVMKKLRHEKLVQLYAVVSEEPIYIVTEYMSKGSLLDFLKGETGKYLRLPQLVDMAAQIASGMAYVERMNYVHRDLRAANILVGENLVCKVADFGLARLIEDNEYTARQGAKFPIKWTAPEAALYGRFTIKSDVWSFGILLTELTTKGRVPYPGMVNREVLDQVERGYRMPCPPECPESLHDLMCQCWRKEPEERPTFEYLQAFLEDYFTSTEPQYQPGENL

SMILES	Kd
Cn1cc(-c2ccc(F)c(C(F)(F)F)c2)nc1C1CCN(c2ncnc3[nH]ncc23)CC1 [LY-2584702]	> 30 µM (inactive)
COc1cc(OC)c(/C=C/S(=O)(=O)Cc2ccc(OC)c(NCC(=O)O)c2)c(OC)c1 [RIGOSERTIB]	> 30 µM (inactive)
CN1N=C(N)c2cn([C@@H]3O[C@H](COP(=O)(O)O)[C@@H](O)[C@H]3O)c3ncnc1c23 [TRICIRIBINE PHOSPHATE]	> 30 µM (inactive)

What follows are compounds tested against Protein-tyrosine kinase 6 (Homo sapiens, UniProt Q13882).

SMILES	Kd
Cn1cc(-c2ccc(F)c(C(F)(F)F)c2)nc1C1CCN(c2ncnc3[nH]ncc23)CC1 [LY-2584702]	> 30 µM (inactive)
COc1cc(OC)c(/C=C/S(=O)(=O)Cc2ccc(OC)c(NCC(=O)O)c2)c(OC)c1 [RIGOSERTIB]	> 30 µM (inactive)
CN1N=C(N)c2cn([C@@H]3O[C@H](COP(=O)(O)O)[C@@H](O)[C@H]3O)c3ncnc1c23 [TRICIRIBINE PHOSPHATE]	> 30 µM (inactive)

Each compound was assayed against Rho-associated protein kinase 1 (Homo sapiens, UniProt Q13464).
Chain of Rho-associated protein kinase 1 (Q13464 whole entry): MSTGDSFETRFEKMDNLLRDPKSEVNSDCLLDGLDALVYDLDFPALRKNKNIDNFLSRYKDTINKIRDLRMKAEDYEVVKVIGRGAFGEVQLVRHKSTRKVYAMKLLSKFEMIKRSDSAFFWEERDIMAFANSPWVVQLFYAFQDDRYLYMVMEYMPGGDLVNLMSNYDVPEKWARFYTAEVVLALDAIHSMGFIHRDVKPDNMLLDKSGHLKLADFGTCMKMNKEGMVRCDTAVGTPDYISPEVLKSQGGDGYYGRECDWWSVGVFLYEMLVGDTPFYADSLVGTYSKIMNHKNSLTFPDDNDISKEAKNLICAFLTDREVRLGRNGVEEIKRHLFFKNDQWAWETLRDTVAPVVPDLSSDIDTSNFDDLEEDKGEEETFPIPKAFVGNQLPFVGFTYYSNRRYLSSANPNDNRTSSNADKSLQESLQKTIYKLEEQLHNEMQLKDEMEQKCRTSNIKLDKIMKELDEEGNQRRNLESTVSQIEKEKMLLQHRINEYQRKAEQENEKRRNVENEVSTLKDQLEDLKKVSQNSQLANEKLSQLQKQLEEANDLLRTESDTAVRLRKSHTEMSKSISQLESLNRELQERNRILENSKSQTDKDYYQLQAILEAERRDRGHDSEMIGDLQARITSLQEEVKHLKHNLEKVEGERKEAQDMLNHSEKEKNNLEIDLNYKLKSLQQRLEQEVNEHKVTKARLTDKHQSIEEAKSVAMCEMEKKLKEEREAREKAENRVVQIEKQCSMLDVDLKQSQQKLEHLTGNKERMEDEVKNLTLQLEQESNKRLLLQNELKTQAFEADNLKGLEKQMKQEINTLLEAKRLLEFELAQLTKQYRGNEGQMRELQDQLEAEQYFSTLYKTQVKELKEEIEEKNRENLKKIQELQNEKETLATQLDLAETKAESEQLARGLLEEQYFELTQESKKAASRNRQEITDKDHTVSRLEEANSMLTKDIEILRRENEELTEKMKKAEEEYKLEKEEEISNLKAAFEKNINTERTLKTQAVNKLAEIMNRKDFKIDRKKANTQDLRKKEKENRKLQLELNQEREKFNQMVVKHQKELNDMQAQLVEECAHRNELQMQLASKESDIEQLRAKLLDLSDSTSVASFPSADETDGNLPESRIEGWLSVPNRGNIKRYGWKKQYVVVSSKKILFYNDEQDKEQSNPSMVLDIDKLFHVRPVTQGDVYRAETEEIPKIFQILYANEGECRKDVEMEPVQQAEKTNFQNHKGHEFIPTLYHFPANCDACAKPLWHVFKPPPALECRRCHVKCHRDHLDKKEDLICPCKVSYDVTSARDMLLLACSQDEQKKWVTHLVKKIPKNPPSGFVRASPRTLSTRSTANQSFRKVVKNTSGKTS

SMILES	Kd
Cn1cc(-c2ccc(F)c(C(F)(F)F)c2)nc1C1CCN(c2ncnc3[nH]ncc23)CC1 [LY-2584702]	> 30 µM (inactive)
COc1cc(OC)c(/C=C/S(=O)(=O)Cc2ccc(OC)c(NCC(=O)O)c2)c(OC)c1 [RIGOSERTIB]	> 30 µM (inactive)
CN1N=C(N)c2cn([C@@H]3O[C@H](COP(=O)(O)O)[C@@H](O)[C@H]3O)c3ncnc1c23 [TRICIRIBINE PHOSPHATE]	> 30 µM (inactive)

The compounds below were run against T4, Interleukin-1 receptor-associated kinase 3 (Homo sapiens, UniProt Q9Y616).
T4 sequence (Q9Y616 whole entry): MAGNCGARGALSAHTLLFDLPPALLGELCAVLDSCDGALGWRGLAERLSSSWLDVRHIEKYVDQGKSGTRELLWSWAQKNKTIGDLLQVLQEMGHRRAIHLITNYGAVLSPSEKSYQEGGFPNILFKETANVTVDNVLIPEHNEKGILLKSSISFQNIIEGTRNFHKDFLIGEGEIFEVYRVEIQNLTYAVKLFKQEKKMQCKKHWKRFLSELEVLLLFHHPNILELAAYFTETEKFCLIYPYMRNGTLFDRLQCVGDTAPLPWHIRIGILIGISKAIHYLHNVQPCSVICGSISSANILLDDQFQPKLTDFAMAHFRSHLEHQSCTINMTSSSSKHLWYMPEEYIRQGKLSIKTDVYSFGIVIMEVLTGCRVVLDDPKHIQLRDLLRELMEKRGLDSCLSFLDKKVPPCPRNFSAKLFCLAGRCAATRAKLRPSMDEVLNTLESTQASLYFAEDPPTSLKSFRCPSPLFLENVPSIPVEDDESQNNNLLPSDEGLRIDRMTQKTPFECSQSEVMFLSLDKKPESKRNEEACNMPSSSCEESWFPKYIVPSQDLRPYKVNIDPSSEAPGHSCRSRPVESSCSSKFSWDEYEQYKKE

SMILES	Kd
Cn1cc(-c2ccc(F)c(C(F)(F)F)c2)nc1C1CCN(c2ncnc3[nH]ncc23)CC1 [LY-2584702]	> 30 µM (inactive)
COc1cc(OC)c(/C=C/S(=O)(=O)Cc2ccc(OC)c(NCC(=O)O)c2)c(OC)c1 [RIGOSERTIB]	> 30 µM (inactive)
CN1N=C(N)c2cn([C@@H]3O[C@H](COP(=O)(O)O)[C@@H](O)[C@H]3O)c3ncnc1c23 [TRICIRIBINE PHOSPHATE]	> 30 µM (inactive)

These compounds were tested against Tyrosine-protein kinase Yes (Homo sapiens, UniProt P07947).
Chain of Tyrosine-protein kinase Yes (P07947 whole entry): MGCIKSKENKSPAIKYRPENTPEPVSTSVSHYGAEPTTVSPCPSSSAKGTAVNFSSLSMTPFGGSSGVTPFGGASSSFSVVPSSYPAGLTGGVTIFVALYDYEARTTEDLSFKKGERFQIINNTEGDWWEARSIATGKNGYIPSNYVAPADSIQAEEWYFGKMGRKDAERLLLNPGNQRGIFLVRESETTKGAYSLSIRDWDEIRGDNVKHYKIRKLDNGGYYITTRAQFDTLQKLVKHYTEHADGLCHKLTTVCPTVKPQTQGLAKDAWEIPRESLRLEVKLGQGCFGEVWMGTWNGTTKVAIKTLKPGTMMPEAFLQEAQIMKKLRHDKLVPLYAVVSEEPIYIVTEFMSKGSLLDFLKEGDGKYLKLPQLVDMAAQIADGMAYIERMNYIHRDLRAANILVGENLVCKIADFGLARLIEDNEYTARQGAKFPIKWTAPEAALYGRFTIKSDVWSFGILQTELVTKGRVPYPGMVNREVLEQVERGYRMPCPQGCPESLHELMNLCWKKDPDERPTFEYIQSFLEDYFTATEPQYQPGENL

SMILES	Kd
Cn1cc(-c2ccc(F)c(C(F)(F)F)c2)nc1C1CCN(c2ncnc3[nH]ncc23)CC1 [LY-2584702]	> 30 µM (inactive)
COc1cc(OC)c(/C=C/S(=O)(=O)Cc2ccc(OC)c(NCC(=O)O)c2)c(OC)c1 [RIGOSERTIB]	> 30 µM (inactive)
CN1N=C(N)c2cn([C@@H]3O[C@H](COP(=O)(O)O)[C@@H](O)[C@H]3O)c3ncnc1c23 [TRICIRIBINE PHOSPHATE]	> 30 µM (inactive)

Each compound was assayed against Serine/threonine-protein kinase 16 (Homo sapiens, UniProt O75716).
Chain of Serine/threonine-protein kinase 16 (O75716 whole entry): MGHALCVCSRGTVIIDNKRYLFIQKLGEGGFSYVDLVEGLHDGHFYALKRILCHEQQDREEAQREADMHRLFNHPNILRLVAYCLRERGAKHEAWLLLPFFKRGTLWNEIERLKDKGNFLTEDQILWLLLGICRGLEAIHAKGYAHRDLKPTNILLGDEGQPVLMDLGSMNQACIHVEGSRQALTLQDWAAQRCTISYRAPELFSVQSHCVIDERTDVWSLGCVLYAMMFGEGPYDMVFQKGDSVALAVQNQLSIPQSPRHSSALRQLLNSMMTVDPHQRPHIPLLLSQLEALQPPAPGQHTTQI

SMILES	Kd
Cn1cc(-c2ccc(F)c(C(F)(F)F)c2)nc1C1CCN(c2ncnc3[nH]ncc23)CC1 [LY-2584702]	> 30 µM (inactive)
COc1cc(OC)c(/C=C/S(=O)(=O)Cc2ccc(OC)c(NCC(=O)O)c2)c(OC)c1 [RIGOSERTIB]	> 30 µM (inactive)
CN1N=C(N)c2cn([C@@H]3O[C@H](COP(=O)(O)O)[C@@H](O)[C@H]3O)c3ncnc1c23 [TRICIRIBINE PHOSPHATE]	> 30 µM (inactive)

What follows are compounds tested against T5, Ferrochelatase, mitochondrial (Homo sapiens, UniProt P22830).
T5 sequence (P22830 whole entry): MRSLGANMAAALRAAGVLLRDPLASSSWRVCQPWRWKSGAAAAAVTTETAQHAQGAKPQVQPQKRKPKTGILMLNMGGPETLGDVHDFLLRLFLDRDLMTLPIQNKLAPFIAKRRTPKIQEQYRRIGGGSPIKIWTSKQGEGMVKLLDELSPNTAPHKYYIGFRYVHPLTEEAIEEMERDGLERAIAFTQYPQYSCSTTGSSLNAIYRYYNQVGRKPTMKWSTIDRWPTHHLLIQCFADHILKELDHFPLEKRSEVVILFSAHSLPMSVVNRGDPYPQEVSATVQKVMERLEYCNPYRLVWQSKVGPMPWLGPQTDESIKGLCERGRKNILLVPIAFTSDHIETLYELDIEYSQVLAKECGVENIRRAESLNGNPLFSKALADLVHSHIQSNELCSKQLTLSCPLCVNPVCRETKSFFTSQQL

SMILES	Kd
Cn1cc(-c2ccc(F)c(C(F)(F)F)c2)nc1C1CCN(c2ncnc3[nH]ncc23)CC1 [LY-2584702]	> 30 µM (inactive)
COc1cc(OC)c(/C=C/S(=O)(=O)Cc2ccc(OC)c(NCC(=O)O)c2)c(OC)c1 [RIGOSERTIB]	5.58 µM (active)
CN1N=C(N)c2cn([C@@H]3O[C@H](COP(=O)(O)O)[C@@H](O)[C@H]3O)c3ncnc1c23 [TRICIRIBINE PHOSPHATE]	> 30 µM (inactive)

Each compound was assayed against Mitotic checkpoint serine/threonine-protein kinase BUB1 (Homo sapiens, UniProt O43683).
Chain of Mitotic checkpoint serine/threonine-protein kinase BUB1 (O43683 whole entry): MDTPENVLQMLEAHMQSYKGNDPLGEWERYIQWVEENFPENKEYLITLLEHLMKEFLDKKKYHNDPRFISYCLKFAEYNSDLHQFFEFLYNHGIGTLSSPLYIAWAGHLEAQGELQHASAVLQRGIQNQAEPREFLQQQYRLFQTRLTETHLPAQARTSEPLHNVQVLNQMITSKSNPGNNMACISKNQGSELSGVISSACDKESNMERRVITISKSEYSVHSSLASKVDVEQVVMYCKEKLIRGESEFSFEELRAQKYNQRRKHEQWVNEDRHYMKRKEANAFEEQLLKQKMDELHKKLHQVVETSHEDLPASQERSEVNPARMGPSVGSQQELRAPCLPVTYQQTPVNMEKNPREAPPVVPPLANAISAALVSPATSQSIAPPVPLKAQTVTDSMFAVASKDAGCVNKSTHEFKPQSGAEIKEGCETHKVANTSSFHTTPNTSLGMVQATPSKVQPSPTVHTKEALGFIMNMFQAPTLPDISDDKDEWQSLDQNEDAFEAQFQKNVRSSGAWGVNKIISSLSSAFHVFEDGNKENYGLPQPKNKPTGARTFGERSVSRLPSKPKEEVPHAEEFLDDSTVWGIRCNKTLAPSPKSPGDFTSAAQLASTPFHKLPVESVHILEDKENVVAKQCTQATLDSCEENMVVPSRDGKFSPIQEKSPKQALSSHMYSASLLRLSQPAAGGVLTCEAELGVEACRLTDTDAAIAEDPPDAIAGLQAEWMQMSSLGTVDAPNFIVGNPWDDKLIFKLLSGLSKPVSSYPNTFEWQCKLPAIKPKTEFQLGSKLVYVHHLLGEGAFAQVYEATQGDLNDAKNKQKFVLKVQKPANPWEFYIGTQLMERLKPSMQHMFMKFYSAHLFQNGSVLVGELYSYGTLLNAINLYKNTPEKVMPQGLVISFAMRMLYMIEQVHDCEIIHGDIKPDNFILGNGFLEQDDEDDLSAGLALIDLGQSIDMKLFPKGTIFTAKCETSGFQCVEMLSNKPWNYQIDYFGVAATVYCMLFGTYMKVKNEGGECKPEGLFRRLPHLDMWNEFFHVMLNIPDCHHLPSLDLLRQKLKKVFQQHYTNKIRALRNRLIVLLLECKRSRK

SMILES	Kd
Cn1cc(-c2ccc(F)c(C(F)(F)F)c2)nc1C1CCN(c2ncnc3[nH]ncc23)CC1 [LY-2584702]	> 30 µM (inactive)
COc1cc(OC)c(/C=C/S(=O)(=O)Cc2ccc(OC)c(NCC(=O)O)c2)c(OC)c1 [RIGOSERTIB]	> 30 µM (inactive)
CN1N=C(N)c2cn([C@@H]3O[C@H](COP(=O)(O)O)[C@@H](O)[C@H]3O)c3ncnc1c23 [TRICIRIBINE PHOSPHATE]	> 30 µM (inactive)

These compounds were tested against Mitogen-activated protein kinase kinase kinase kinase 5 (Homo sapiens, UniProt Q9Y4K4).
Chain of Mitogen-activated protein kinase kinase kinase kinase 5 (Q9Y4K4 whole entry): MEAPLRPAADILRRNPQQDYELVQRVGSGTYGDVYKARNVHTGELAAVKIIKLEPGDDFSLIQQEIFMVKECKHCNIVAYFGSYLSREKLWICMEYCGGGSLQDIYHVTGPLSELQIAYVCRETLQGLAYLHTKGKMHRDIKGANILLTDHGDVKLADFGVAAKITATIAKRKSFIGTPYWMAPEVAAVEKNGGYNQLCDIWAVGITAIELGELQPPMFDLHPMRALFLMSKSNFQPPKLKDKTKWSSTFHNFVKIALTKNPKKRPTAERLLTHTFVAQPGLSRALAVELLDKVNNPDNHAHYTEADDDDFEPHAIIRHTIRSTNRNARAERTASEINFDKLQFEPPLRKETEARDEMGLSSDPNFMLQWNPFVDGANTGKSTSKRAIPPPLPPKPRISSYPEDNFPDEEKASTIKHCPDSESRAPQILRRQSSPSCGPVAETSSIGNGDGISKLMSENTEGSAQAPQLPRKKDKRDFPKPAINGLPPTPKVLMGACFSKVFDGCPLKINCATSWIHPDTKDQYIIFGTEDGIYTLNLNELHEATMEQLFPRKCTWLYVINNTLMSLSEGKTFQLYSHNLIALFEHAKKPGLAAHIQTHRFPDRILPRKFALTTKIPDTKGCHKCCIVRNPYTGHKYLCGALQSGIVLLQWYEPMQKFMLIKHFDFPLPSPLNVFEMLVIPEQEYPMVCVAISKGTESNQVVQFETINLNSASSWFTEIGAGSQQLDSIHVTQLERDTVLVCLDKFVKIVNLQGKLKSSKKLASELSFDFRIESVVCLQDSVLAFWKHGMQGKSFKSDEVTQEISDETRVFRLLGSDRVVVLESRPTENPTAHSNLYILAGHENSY

SMILES	Kd
Cn1cc(-c2ccc(F)c(C(F)(F)F)c2)nc1C1CCN(c2ncnc3[nH]ncc23)CC1 [LY-2584702]	> 30 µM (inactive)
COc1cc(OC)c(/C=C/S(=O)(=O)Cc2ccc(OC)c(NCC(=O)O)c2)c(OC)c1 [RIGOSERTIB]	> 30 µM (inactive)
CN1N=C(N)c2cn([C@@H]3O[C@H](COP(=O)(O)O)[C@@H](O)[C@H]3O)c3ncnc1c23 [TRICIRIBINE PHOSPHATE]	> 30 µM (inactive)
